In patent publication US12036193B2, “Synergistic bioactive compositions for treating neurological disorders” (priority 2019, dated 2024):

Assays:
[1] = Rat body weight in global ischemia reperfusion induced brain injury study; settings: n=6, Standard 9.3 mg/kg, Agmatine sulphate 310 mg/kg, Bio-optimized PEA 372 mg/kg, combination 310+372 mg/kg, p.o. daily
TNF alpha = test: Rat TNF alpha level after global cerebral ischemia/reperfusion; type: in vivo, Wistar rats; settings: mean ± SEM, n=6; oral 10 days, 30 min ischemia on 7th day + 72 hrs reperfusion; Standard 9.3, Agmatine sulphate 310, Bio-optimized PEA 372, combination 310+372 mg/kg; I/R control 172.17 ± 6.35
Interleukin - 6 = test: Rat Interleukin-6 level after global cerebral ischemia/reperfusion; type: in vivo, Wistar rats; settings: mean ± SEM, n=6; oral 10 days, 30 min ischemia on 7th day + 72 hrs reperfusion; Standard 9.3, Agmatine sulphate 310, Bio-optimized PEA 372, combination 310+372 mg/kg; I/R control 121.83 ± 1.65
[2] = Rat feed consumption in global ischemia reperfusion induced brain injury study; settings: Standard 9.3 mg/kg, Agmatine sulphate 310 mg/kg, Bio-optimized PEA 372 mg/kg, combination 310+372 mg/kg, p.o. daily

N=C(N)NCCCCN.O=S(=O)(O)O [Agmatine sulphate, 1-(4-Aminobutyl)guanidine sulfate]
Body Weight, Week 01 ([1]; Week 01, mean ± SEM): 224.33 ± 0.42 gm
Body Weight, Basal ([1]; basal, mean ± SEM): 215.00 ± 0.73 gm
TNF alpha Level (TNF alpha): 142.00 ± 1.53 pg/mL
Interleukin - 6 Levels (Interleukin - 6): 91.39 ± 0.92 pg/mL
Feed Consumption, Week 01 [2]: 99.57 ± 1.19 gm
